Patent US12383628B2 (priority 2016, dated 2025)
Entries after “also recorded” stand apart in the source; their conditions may differ.

Legend:
[1] = human plasma; conditions: 37° C.; for cleaved bond / fragment found: up to 60 min
[2] = tested on: Male CD1 mice; test: Radiant heat tail-flick test after s.c. administration, opioids in solution or co-formulated with hydrogelator; type: in vivo, mouse; conditions: for Time after administration at which no effect was detected / Time of peak antinociceptive action: s.c. bolus in solution (morphine 5 mg/kg; 14-MM 2.25 μg)
Procedure: Male CD1 mice (6-8 weeks old, body weight average 30 g) were obtained from Charles River (Sulzfeld, Germany). Mice were group-housed in a temperature controlled room with a 12 h light/dark cycle and with free access to food and water. All animal studies were conducted in accordance with ethical guidelines and animal welfare standards according to Austrian regulations for animal research, and were approved by the Committee of Animal Care of the Austrian Federal Ministry of Science and Research.
The radiant heat tail-flick test was used to assess antinociceptive effects of tested drugs after s.c. administration in mice using an UB 37360 Ugo Basile analgesiometer (Ugo Basile s.r.l., Varese, Italy) as described previously (A. Novoa et al., 2012). The reaction time required by the mouse to remove its tail due to the radiant heat was measured and defined as the tail-flick latency. A cut-off time of 10 s was also used in order to minimize tissue damage. The antinociceptive response was expressed as percent of Maximum Possible Effect (% MPE)=[(TL-BL)/(cut-off time-BL)]×100. Data were analyzed with ANOVA using Tukey's multiple comparison test, and graphically processed with the GraphPad Prism Software (GraphPad Software Inc., San Diego, CA).
(§1) Performed as described in Example 5.
as §1
The antinociceptive effect of co-formulations of a peptide hydrogelator as described herein with peptide-based analgesics was investigated in a model of thermal nociception using the tail-flick test in mice. […] The Tail-flick test was performed as described in Example 5.

H-DPhe-DGlu-DPhe*-DGln-DPhe-DLys-NH2
not cleaved ([1]; up to 5700 min): remained intact after 4 days of incubation

H-DLys-DPhe-DGln-DPhe*-DGlu-DPhe-NH2
not cleaved ([1]; up to 1500 min): remains intact after 25 h of incubation

Dmt-DLys-Phe-Phe-Glu-Phe*-Gln-Phe-Lys-NH2
cleaved bond [1]: Gln-Phe, first_seen, 2.5 min; also recorded: Glu-Phe, 7.5 min

Dmt-OLy:s-Phe-Phe-Gln-Phe*-Gln-Phe*-Lys-NH2
fragment found [1]: heptapeptide, first_seen; also recorded: pentapeptide; also recorded: tripeptide

CO[C@@]12CCC(=O)[C@]3(C)Oc4c(O)ccc5c4[C@@]31CCN(C)[C@@H]2C5 [14-MM, 14-methoxymethopon]
Dose required to produce 80% MPE, times lower than morphine ([2]; s.c. bolus): 66 times
Antinociceptive effect at peak of action (% MPE) ([2]; s.c. bolus 2.25 μg, 30 min): 80 % of MPE
Time after administration at which no effect was detected [2]: 4 h
Time of peak antinociceptive action [2]: 30 min

Dmt-DArg-Phe-Phe-Gln-Phe*-Gln-Phe-Lys-NH2
cleaved bond [1]: Gln-Phe, first_seen, 2.5 min; also recorded: Gln-Phe, 7.5 min
fragment found [1]: Dmt-DArg-Phe-OH, 60 min

CN1CC[C@]23c4c5ccc(O)c4O[C@H]2[C@@H](O)C=C[C@H]3[C@H]1C5 [morphine]
Time after administration at which no effect was detected [2]: 3 h
Time of peak antinociceptive action [2]: 30 min
Antinociceptive effect (% MPE) ([2]; s.c. bolus in solution, 5 mg/kg (0.15 mg per mouse)): 80 % MPE
